Measured values reported in patent US11311593B2, “Root extracts from plants of the Morus genus and uses of same” (PLANT ADVANCED TECHNOLOGIES PAT, priority 2017, dated 2022).

Molecular target: T1, hyaluronidase originating from bull testicles (type IV-S) (Bos taurus, UniProt Q2YDK3)
T1 construct: hyaluronidase originating from bull testicles (type IV-S); from tissue; host or cells: bull testicles
T1 sequence (Q2YDK3 36-553): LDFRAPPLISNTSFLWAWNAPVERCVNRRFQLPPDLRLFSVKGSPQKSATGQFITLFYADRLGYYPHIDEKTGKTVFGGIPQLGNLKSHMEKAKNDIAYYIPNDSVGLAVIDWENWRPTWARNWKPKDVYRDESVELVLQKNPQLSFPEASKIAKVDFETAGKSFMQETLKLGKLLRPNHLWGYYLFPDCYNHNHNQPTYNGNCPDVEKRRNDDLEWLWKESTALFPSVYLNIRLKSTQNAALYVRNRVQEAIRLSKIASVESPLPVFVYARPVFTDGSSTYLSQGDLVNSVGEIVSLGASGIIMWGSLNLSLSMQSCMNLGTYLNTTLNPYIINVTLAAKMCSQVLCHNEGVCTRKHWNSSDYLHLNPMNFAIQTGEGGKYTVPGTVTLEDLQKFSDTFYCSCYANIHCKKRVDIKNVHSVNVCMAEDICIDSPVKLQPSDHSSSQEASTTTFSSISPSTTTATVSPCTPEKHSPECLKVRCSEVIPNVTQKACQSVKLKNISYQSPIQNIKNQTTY
Assay: Anti-hyaluronidase inhibiting activity, hyaluronic acid as substrate, precipitation with acidic BSA
Format: biochemical
Description: A root extract of Morus Alba was prepared in accordance with the protocol described in Example 5. Hyaluronidase catalyzes the hydrolysis of hyaluronic acids into monosaccharides, disaccharides and short oligosaccharides. The measurement of the anti-hyaluronidase inhibiting activity was carried out using hyaluronic acid (HA) as a substrate in order to follow its reduction during the enzymatic reaction, the slope of the reduction of the concentration of HA during the reaction being proportional to the enzymatic activity.
The concentration of HA was measured in accordance with the following principle: in the presence of an acidic solution of bovine serum albumin, HA precipitates. Thus, in the case of the presence of HA, a precipitate is formed and in the case of complete hydrolysis of the HA, no precipitate is observed. Thus, the quantity of precipitation is proportion& to the HA content. […]
In order to follow the enzymatic degradation of the HA, a volume of 50 μl of RM was removed every 15 minutes, mixed with a volume of 250 μL of the solution of acidic BSA (acidic solution of bovine serum albumin: 24 mM sodium acetate, 79 mM acetic add and 0.1% (w/v) bovine serum albumin, pH 3.75) then incubated for 10 min at ambient temperature. The quantity of precipitate formed was then measured using a plate reader (diffusion of light at 600 nm). […]

## CC(C)=CCc1c(O)ccc(C(=O)[C@@H]2CC(C)=C[C@H](c3c(O)cc(O)c4c(=O)c(CC=C(C)C)c(-c5ccc(O)cc5O)oc34)[C@H]2c2ccc(O)cc2O)c1O [Moracenin A, moracenin A]
  inhibition at 10 µM: 55.1%
